Assay results: patent publication US20250066292A1 (The Regents of the University of California, priority 2021, published 2025)

Experiments:
[1] = test system: CDAHFD induced mouse models of NASH; experiment: Murine CDAHFD NASH Study 2 comparing prodrug analogs BL0940 and BL0948; assay type: in vivo, mouse (C57BL/6 male); settings: lower dose of BL0940, once daily gavage
Text: Mice had at least received 8 weeks of CDAHDF diet before starting the study and continued to receive this diet during the next phase of the study. There were 8 mice per group (C57BL/6 male).
• HD BL0940 (High dose) once daily by gavage therapy for 4 • LD BL0940 (low dose) once daily by gavage therapy for 4 • BL0948 once daily by gavage therapy for 4 weeks
The MW of BL0940 is higher than BL0948 and so a higher dose was given. That is, HD BL0940 and BL0948 had capability of releasing same number of D2-cysteamine molecules.

cystinotic fibroblasts [2] = experiment: Intracellular D2-cysteamine and prodrug levels following continual drug exposure; assay type: cell-based, human; settings: for intracellular D2-cysteamine levels: 100 uM in media, continual exposure
Description: (§1) Cystine Depletion Study. Dermal cystinotic fibroblasts were cultured in medium containing BL0948, BL0940 or D4-Cystamine at the same 100 uM concentration:
Intracellular D2-cysteamine levels are measured following continual drug exposure (in media) to cystinotic fibroblasts (FIG. 7).

[3] = Prodrug stability and conversion in the medium and within the cell; assay type: in vitro ADME
Text: This prodrug analog, BL0940, is very stable both in the medium and within the cell.

[4] = test system: Dermal cystinotic fibroblasts; experiment: Cystine Depletion Study with BL0948, BL0940 or D4-Cystamine; assay type: cell-based, human; settings: 100 uM in medium, continual exposure
Description: as §1
Intracellular cystine depletion over time. […] This likely represents a rapid exposure to D2-cysteamine after intracellular uptake. D4-cystamine will most likely reduce after crossing the cell membrane (peak level seen at 45 mins). BL0948 most likely has reduced to D2-cysteamine and the rearranged isomer in the medium before crossing the cell membrane. It is possible that after extracellular reduction that the ratio of D2-Cysteamine to rearranged analog is 10-20:1.

[5] = Stability of BL-0856 resuspended in water (LC-MS); assay type: physicochemical; settings: 25 mM in water, 1-week post-resuspension
Description: Drug concentrations: BL-0856 powder was resuspended in water at a concentration of 25 mM. 40 μL of this solution was added to 10 mL of media for a final concentration of 100 uM. […] Based upon the LC-MS profile, BL-0856 was likely >80-90% pure (unhydrolyzed) when used in the experiments. A method for the reduced intermediate form was also made, but none of it was found present in the neat standard.

cystinotic fibroblasts [6] = experiment: Glutathione and oxidized glutathione measurement during constant exposure; assay type: cell-based, human; settings: 100 uM; for oxidized glutathione (GSSG) / ratio of GSH/GSSG: versus 0-minute controls
Description: (§2) In vitro experiments with prodrugs in cystinotic fibroblasts. Fibroblasts from a de-identified cystinotic patient were split 3× from 2 plates into 12 plates. An experimental compound, BL-0856, was studied using the following protocols. Several timepoints of cystamine was also performed for comparison. The constant incubation time series for the new compound was: 0, 15 min, 30 min, 1 h, 3 h, and 5 h. The cystamine timepoints were 0, 30 min, 1 h, and 5 h. There was also a washout experiment done for 2 timepoints of the experimental compound, where after 3 hours of constant incubation, the media was exchanged with no compound, and incubated for either 1 h or 3 h. Harvesting of cells on the plate went as follows 2× washes with PBS that included 5 mM N-ethylmaleimide for trapping free thiol groups, and then scraping the plates with an acidified organic solvent extraction solution containing d4-NEM-cysteamine, d4-cystine, d8-cystamine, ^13C^15N NEM-glutathione, and ^13C, ^15N GSSG as internal standards. All samples were run on an API 4500 triple quadrupole LC-MS/MS, with selective reaction monitoring (SRM/MRM) for the following compounds of interest: cystine, cysteine, cystamine, reduced glutathione, oxidized glutathione (GSSG). […] All data fit well to single exponential curves (either decay or association), except where mentioned.
Glutathione and oxidized glutathione measurement during constant cystamine or BL-0856 exposure: Fibroblast cultures are exposed to 100 uM cystamine or 100 uM BL-0856 for the following timepoints: 0 min, […], 30 min, 1 h, 3 h, and 5 h. Following incubation, cells are washed 2× in PBS containing N-ethylmaleimide. After removing the wash, the cells are harvested on ice using 80% acetonitrile/1% formic acid, containing stable isotope internal standard for glutathione and oxidized glutathione.

cystinotic fibroblasts [7] = experiment: Cystine measurement during constant cystamine or BL-0856 exposure; assay type: cell-based, human; settings: 100 uM, constant exposure 0 min to 5 h, compared with cystamine
Description: Drug concentrations: BL-0856 powder was resuspended in water at a concentration of 25 mM. 40 μL of this solution was added to 10 mL of media for a final concentration of 100 uM.
Cystamine was made from high pH oxidation of cysteamine-bitartrate powder (w/Ammonium hydroxide), at a concentration of 25 mM. […] Since this was used for only several timepoints of a control, this was deemed sufficient for this purpose. The drug was also administered to cells at a final concentration of 100 uM.
In vitro experiments with prodrugs in cystinotic fibroblasts. Fibroblasts from a de-identified cystinotic patient were split 3× from 2 plates into 12 plates. An experimental compound, BL-0856, was studied using the following protocols. Several timepoints of cystamine was also performed for comparison. The constant incubation time series for the new compound was: 0, 15 min, 30 min, 1 h, 3 h, and 5 h. The cystamine timepoints were 0, 30 min, 1 h, and 5 h. There was also a washout experiment done for 2 timepoints of the experimental compound, where after 3 hours of constant incubation, the media was exchanged with no compound, and incubated for either 1 h or 3 h. […]

cystinotic fibroblasts [8] = experiment: Cysteamine and cystamine (and prodrug) measurement during constant exposure; assay type: cell-based, human; settings: 100 uM; for Cysteamine levels (intracellular) / cystamine levels (intracellular): constant exposure 0 min to 5 h
Description: as §2
Following incubation, cells are washed 2× in PBS containing N-ethylmaleimide.

cystinotic fibroblasts [9] = experiment: Cysteine measurement during constant exposure; assay type: cell-based, human; settings: 100 uM, compared with cystamine
Description: as §2, with “mentioned. […]” for “mentioned.”

cystinotic fibroblasts [10] = experiment: Cystine measurement after washout; assay type: cell-based, human; settings: 100 uM for 3 h, then washout in regular media 0 min, 1 h
Description: as §2, with “mentioned. […]” for “mentioned.”

[11] = test system: CDAHFD induced mouse models of NASH; experiment: Study 1 NASH/Mouse (CDAHFD diet); assay type: in vivo, mouse (C57BL/6 male); settings: 200 mg/kg once daily gavage for 2 weeks; for intrahepatic fibrosis: compared with control group
Description: Study 1—NASH/Mouse. Mice had at least received 8 weeks of CDAHFD diet before starting the study and continued to receive this diet during the next phase of the study. There were 4 mice per group (C57BL/6 male): • Control group (c1), water administered once daily by gavage for 2 weeks; • 200 mg/kg of Drug 0 once daily gavage therapy for 2 weeks; • 200 mg/kg of Drug 2 once daily gavage therapy for 2 weeks; • 200 mg/kg of Drug 4 once daily gavage therapy for 2 weeks. FIG. 10A depicts the study outline.

[12] = test system: circulating white blood cells; settings: taken regularly, measured in circulating white blood cells; cited from earlier work
[13] = 400-1000 IU/day for 4-10 months, cited from earlier work

For `[2H]C([2H])(CN)SSC[C@H](NC(C)=O)C(=O)OCC` [BL0940], the “effect on markers of inflammation, remodeling and fibrosis” value [1] was “did not have the same degree of effect”, the “intracellular D2-cysteamine levels” value (cystinotic fibroblasts [2]) was “increase over time” and the “intracellular levels of BL0940” value (cystinotic fibroblasts [2]; continued exposure, e.g. at 240 minute time points) was “increase over time”. The “stability in the medium and within the cell” value [3] was “very stable” and the “intracellular cystine depletion (effect on cystine levels)” value (from here on “intracellular cystine depletion”) [4] was “less of an effect compared to D4-cystamine”.
In the case of `[2H]C([2H])(CN)SC(C)=O` [BL0948], the “intracellular D2-cysteamine levels” value (cystinotic fibroblasts [2]) is reported as “relatively high level”, the “conversion of prodrug to D2-cysteamine” value ([3]; portion rearranges to the N-acetylated isomer) is reported as “does not convert entirely to D2-cysteamine” and the “intracellular cystine depletion” value [4] is reported as “rapid and more profound”. For the same compound, the “intracellular cystine depletion” value ([4]; listed as BL-948) was “pronounced effect”.
For `Cl.Cl.Cl.NCCSSC[C@H](N)C(=O)SCCN` [BL-0856, (S)-3-((2-ammonioethyl)disulfaneyl)-1-((2-ammonioethyl)thio)-1-oxopropan-2-aminium chloride], the “content of resuspended drug (stability in water)” value [5] was “contained cysteamine and cystamine”, the glutathione (cystinotic fibroblasts [6]; between the 2 drug forms) was “no obvious differences” and the “oxidized glutathione (GSSG)” value (cystinotic fibroblasts [6]) was “goes up at the first timepoint”. The “ratio of GSH/GSSG” value (cystinotic fibroblasts [6]) was “lower throughout all timepoints”, the cystine depletion rates (cystinotic fibroblasts [7]) was “nearly identical” and the “BL-0856 and the thiol reduced intermediate in cells” value (cystinotic fibroblasts [8]; any of the timepoints, LC-MS/MS) was “not found at high enough levels to be identified”. The “Cysteamine levels (intracellular)” value (cystinotic fibroblasts [8]) was “nearly identical”, the “cystamine levels (intracellular)” value (cystinotic fibroblasts [8]) was “some cystamine still exists” and the “cysteine (intracellular)” value (cystinotic fibroblasts [9]) was “higher”. For the same compound, the cystine reaccumulation rate (cystinotic fibroblasts [10]) was “comparable to cystamine”.
For `[2H]C(CN)SSC([2H])CN` (stereo not shown) [D2-cystamine], the intrahepatic fibrosis [11] was “significant reduction”, the “markers of fibrosis (aSMA)” value ([11]; versus control groups) was “significant reduction” and the “markers of inflammation (F4/80)” value ([11]; versus control groups) was “significant reduction”. The “markers of inflammation (FIG. 12A-B)” value ([11]; versus control groups) was “significant reduction”.
In the case of `[2H]C([2H])(CN)SSC([2H])([2H])CN` [D4-cystamine], the intrahepatic fibrosis [11] is reported as “significant reduction”.
In the case of `NCCSSCCN` [cystamine, reference compound], the “oxidized glutathione (GSSG)” value (cystinotic fibroblasts [6]) is reported as “goes up at the first timepoint”, the “ratio of GSH/GSSG” value (cystinotic fibroblasts [6]) is reported as “lower throughout all timepoints” and the “Cysteamine levels (intracellular)” value (cystinotic fibroblasts [8]) is reported as “nearly identical”. For the same compound, the “cystamine levels (intracellular)” value (cystinotic fibroblasts [8]) was “higher”.
In the case of `NCCS` [cysteamine], the “depletion of intracellular cystine” value [12] is listed as “up to 90%”.
For vitamin E, the “mean AST levels after treatment” value ([13]; decreased from 104±61 IU/L) is given as 33±11 IU/L and the “mean ALT levels after treatment” value ([13]; decreased from 175±106 IU/L) is given as 40±26 IU/L.
